Test results from US20050069887A1, “Dna synthesis promoters dna polymerase-associated factors and utilization thereof” (priority 2001, published 2005).
Like-named read-outs stand apart in the source and are kept apart here.

Columns and labels:
[1] = system: EX-Taq DNA polymerase; assay: PCR using EX-Taq DNA polymerase with added salts (Examples 1-1 to 1-3); type: biochemical
Method: The effect produced by the addition of oxalate ions was investigated in the PCR using EX-Taq DNA polymerase. A PCR buffer supplied with EX-Taq (TAKARA) and 0.3 μM of a pair of primers of SEQ ID Nos:8 and 9 and 0.2 mM dNTPs were used. PCR was performed by using 1.0 U EX-Taq DNA polymerase and 20 ng of genomic DNA derived from human cell line K562 as a template, with the influence on the PCR result caused by varying the concentration of added oxalate ion being investigated. The PCR conditions were as follows: 1 preliminary reaction of 94° C. for 2 minutes, and then 35 cycles of 94° C. for 15 seconds, 60° C. for 30 seconds and 68° C. for 8.5 minutes. This PCR amplification was performed by using GeneAmp2400 (PE Applied Biosystems).
Salts (potassium chloride, potassium acetate, potassium oxalate, sodium oxalate, potassium sulfate) were investigated for their effectiveness in PCR using EX-Taq DNA polymerase under the same conditions as Example 1. Each salts was used in an amount of 4 to 6 mM of ion equivalent

[2] = target: T1, nPfu DNA polymerase (Pyrococcus furiosus, UniProt P61875); assay: PCR using nPfu DNA polymerase with added salts (Examples 1-5, 1-6); type: biochemical; conditions: for amplification of target DNA (electrophoresis pattern): salt at 4-6 mM of ion equivalent, FIG. 7
T1 construct: α-Type Enzyme (Native Pfu); purchased STRATAGENE
T1 sequence (P61875 1-775): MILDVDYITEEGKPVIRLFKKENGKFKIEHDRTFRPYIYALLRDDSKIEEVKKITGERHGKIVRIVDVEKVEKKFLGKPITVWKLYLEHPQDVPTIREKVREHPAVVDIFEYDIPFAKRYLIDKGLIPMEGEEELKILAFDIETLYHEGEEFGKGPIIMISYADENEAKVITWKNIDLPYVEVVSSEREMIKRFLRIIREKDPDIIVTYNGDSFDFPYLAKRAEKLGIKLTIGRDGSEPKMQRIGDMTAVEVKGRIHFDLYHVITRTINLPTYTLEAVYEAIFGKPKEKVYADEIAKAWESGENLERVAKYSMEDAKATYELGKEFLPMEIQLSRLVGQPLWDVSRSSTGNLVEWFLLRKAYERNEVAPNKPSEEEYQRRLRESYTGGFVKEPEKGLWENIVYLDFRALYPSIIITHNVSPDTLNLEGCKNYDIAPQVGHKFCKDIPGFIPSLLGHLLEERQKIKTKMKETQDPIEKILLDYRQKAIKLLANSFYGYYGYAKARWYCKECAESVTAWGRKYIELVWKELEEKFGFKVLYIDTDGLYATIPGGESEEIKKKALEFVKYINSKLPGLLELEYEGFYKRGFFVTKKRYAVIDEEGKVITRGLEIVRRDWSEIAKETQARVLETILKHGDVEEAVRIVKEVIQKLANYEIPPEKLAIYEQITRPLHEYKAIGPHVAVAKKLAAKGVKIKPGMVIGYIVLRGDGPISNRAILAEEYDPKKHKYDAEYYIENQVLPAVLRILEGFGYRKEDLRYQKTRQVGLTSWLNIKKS
Method: The effect produced by the addition of oxalate ion in PCR was investigated using nPfu polymerase. A PCR buffer (20 mM Tris-HCl (pH 8.75), 10 mM KCl, 10 mM (NH4) 2SO4, 2 mM MgSO4, 0.1% Triton X-100, 100 μg/ml BSA) attached to nPfu (STRATAGENE), 0.2 mM of dNTPs, and 0.3 μM of a pair of primers of SEQ ID NOs:12, and 13 were used. PCR was performed by using 2.5 U nPfu DNA polymerase and 20 ng of genomic DNA derived from human cell line K562 as a template, with the influence on the PCR result caused by varying the concentration of oxalate ion being investigated. PCR was performed by using GeneAmp2400 (PE Applied Biosystems) with the following conditions: 1 preliminary reaction of 94° C. for 2 minutes, and then 35 cycles of 94° C. for 15 seconds, 60° C. for 30 seconds and 68° C. for 8 minutes.
Salts (potassium chloride, potassium acetate, potassium oxalate, potassium sulfate) were tested for their effectiveness in PCR using nPfu DNA polymerase under the same conditions as Example 1-5.

[3] = target: T2, KOD-plus DNA polymerase (Thermococcus kodakarensis, UniProt P77933, DEL407-766/DEL853-1389); type: biochemical, Thermococcus kodakaraensis KOD1
T2 construct: purchased Toyobo
Method: The effect produced by the addition of oxalate ion to a hot start enzyme was investigated using a hot start enzyme KOD-plus DNA polymerase containing KOD α-type enzyme) and two kinds of KOD antibodies. The PCR buffer supplied with KOD-plus (manufactured by Toyobo), 0.2 mM dNTPs and 0.3 μM of a primer pair of SEQ ID Nos:8 and 9 were used. PCR was performed using 2.5 U KOD-plus DNA polymerase and 20 ng of Genomic DNA derived from human cell line K562 as a template to investigate the influence of varying the concentration of oxalate ion added on the PCR results. The PCR conditions were as follows: 1 preliminary reaction of 94° C. for 2 minutes, and then 35 cycles of 94° C. for 15 seconds, 60° C. for 30 seconds and 68° C. for 8.5 minutes. The PCR was performed using GeneAmp2400 (PE Applied Biosystems).

[4] = target: T3, Taq DNA polymerase (Thermus aquaticus, UniProt P19821); assay: PCR using Taq DNA polymerase with added oxalate ion (Example 1-4); type: biochemical; conditions: for PCR amplification of 4.5-kb DNA of myelin oligodendrocyte glycoprotein: FIG. 5; for PCR amplification of 3.6-kb DNA of β-globin: FIG. 4
T3 construct: purchased TOYOBO CO., LTD
Method: The effect produced by the addition of oxalate ions was investigated in PCR using Taq DNA polymerase. A PCR buffer (10 mM Tris-HCl (pH 8.3), 50 mM KCl, 1.5 mM MgCl2) attached to Taq (TOYOBO CO., LTD.), 0.2 mM dNTPs and 0.3 μM of a primer pair were used. A pair of primers of SEQ ID Nos:10 and 11 was used for the PCR amplification of a 3.6-kb DNA of β-globin cluster (the electrophoresis pattern of its PCR product is shown in FIG. 4), while a pair of primers of SEQ ID Nos:12 and 13 was used for the PCR amplification of a 4.5-kb DNA of myelin oligodendrocyte glycoprotein (the electrophoresis pattern of its PCR product is shown in FIG. 5). The influence of varying the concentration of oxalate ions added on the PCR results was investigated using 2.5 U Taq DNA polymerase and 20 ng of Genomic DNA derived from cultured human cell K562 as a template. The PCR conditions were as follows: 94° C. for 2 minutes as 1 preliminary reaction, and then 30 cycles of 94° C. for 15 seconds, 60° C. for 30 seconds and 68° C. for 8 minutes. The PCR amplification was performed by using GeneAmp 2400 (PE Applied Biosystems).

[5] = target: T2, KOD-plus DNA polymerase; type: biochemical, Thermococcus kodakaraensis KOD1; conditions: for amplification of target DNA (electrophoresis pattern): salt at 6 mM of ion equivalent, FIG. 9; for effect on extra bands: FIG. 10
[6] = K562 genomic DNA template, FIG. 1

T2 sequence (P77933 other isoform, or with tags, fused parts or gaps DEL407-766/DEL853-1389): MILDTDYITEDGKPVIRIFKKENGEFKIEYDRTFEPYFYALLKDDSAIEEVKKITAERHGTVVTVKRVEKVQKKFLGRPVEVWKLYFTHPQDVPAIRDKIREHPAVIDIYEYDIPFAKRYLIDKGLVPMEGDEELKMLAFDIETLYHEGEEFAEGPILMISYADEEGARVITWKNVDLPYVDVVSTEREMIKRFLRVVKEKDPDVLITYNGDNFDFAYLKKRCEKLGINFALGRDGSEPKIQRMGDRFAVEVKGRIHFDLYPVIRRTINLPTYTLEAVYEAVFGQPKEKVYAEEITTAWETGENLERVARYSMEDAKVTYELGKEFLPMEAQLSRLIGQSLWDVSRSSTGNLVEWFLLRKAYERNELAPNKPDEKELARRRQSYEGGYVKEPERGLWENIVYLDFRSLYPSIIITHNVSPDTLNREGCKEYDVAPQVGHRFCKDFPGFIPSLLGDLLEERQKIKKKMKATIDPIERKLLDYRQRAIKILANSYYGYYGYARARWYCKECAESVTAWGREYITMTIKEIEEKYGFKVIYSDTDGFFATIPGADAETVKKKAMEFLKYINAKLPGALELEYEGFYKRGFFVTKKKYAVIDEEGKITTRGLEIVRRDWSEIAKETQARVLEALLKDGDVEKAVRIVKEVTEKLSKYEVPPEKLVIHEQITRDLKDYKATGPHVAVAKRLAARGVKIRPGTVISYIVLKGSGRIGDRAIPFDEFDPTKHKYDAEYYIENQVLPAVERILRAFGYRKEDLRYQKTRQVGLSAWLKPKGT
T3 sequence (P19821 whole entry): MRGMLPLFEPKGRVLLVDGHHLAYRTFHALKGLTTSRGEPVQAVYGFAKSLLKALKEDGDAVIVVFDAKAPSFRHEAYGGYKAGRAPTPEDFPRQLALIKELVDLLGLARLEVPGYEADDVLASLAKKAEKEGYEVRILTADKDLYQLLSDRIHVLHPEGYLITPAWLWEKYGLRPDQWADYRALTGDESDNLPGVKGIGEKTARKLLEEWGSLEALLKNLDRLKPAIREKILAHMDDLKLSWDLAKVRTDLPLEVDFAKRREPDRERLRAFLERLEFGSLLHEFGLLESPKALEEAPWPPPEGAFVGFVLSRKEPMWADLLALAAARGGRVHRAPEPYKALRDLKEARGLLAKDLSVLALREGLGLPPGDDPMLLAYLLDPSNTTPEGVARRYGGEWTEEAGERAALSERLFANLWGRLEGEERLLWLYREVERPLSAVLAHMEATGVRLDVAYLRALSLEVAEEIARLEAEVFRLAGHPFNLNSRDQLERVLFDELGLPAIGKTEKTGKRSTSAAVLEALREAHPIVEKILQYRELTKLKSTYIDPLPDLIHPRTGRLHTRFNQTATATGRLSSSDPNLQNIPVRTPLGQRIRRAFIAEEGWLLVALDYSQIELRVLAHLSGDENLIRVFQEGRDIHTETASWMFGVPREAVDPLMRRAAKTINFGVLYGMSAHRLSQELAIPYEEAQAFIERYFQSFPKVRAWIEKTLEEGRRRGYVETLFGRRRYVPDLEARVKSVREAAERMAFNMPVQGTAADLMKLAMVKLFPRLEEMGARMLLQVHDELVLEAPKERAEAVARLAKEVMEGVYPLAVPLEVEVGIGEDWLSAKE

Compound: O=C(O)C(=O)O [oxalate ion]
- concentration range of oxalate ion within which the effect of the addition is found [1]: up to 4 mM
- oxalate ion amount at which amplification of the target DNA was confirmed [1, 6]: 1 to 4 mM
- oxalate ion concentration at which the amount of amplification was the highest [1, 6]: 2 to 3 mM
- concentration range within which the effect of the addition of oxalate ion is found [2]: up to 5 mM
- oxalate ion concentration at which amplification of the target DNA was observed ([2]; FIG. 6): 2 to 5 mM
- concentration range within which the effect of the addition of oxalate ion is found [3]: up to 5 mM
- concentration range within which the effect of the addition of oxalate ion is found [4]: up to 5 mM
- PCR amplification of 4.5-kb DNA of myelin oligodendrocyte glycoprotein ([4]; 1 mM oxalate ion): amplification of the target DNA was observed together with a smear
- PCR amplification of 3.6-kb DNA of β-globin ([4]; 2 mM oxalate ion): amplification of the target sequence was observed together with a smear
- PCR amplification of 4.5-kb DNA of myelin oligodendrocyte glycoprotein ([4]; 2 mM oxalate ion): no smear was observed
- PCR amplification of 3.6-kb DNA of β-globin ([4]; 4 mM oxalate ion): no smear was observed
- oxalate ion concentration giving a discrete amplification band ([4]; 3.6-kb DNA of β-globin): 4 to 5 mM
- oxalate ion concentration giving a discrete amplification band ([4]; 4.5-kb DNA of myelin oligodendrocyte glycoprotein): 2 to 5 mM

Compound: CC(=O)[O-].[K+] [potassium acetate, reference compound]
- amplification of target DNA (electrophoresis pattern) [5]: Amplification of the target DNA was not observed
- amplification of target DNA (electrophoresis pattern) [2]: amplification of the target DNA was not observed

Compound: [Cl-].[K+] [potassium chloride, reference compound]
- amplification of target DNA (electrophoresis pattern) [5]: Amplification of the target DNA was not observed
- amplification of target DNA (electrophoresis pattern) [2]: amplification of the target DNA was not observed

Compound: O=C[O-].[K+] [potassium formate, reference compound]
- amplification of target DNA (electrophoresis pattern) ([1]; carboxylate salts, FIG. 3): A similar effect to that produced by oxalate salts was not observed

Compound: O=C([O-])CCC(=O)[O-].[K+].[K+] [potassium succinate, reference compound]
- amplification of target DNA (electrophoresis pattern) ([1]; carboxylate salts, FIG. 3): A similar effect to that produced by oxalate salts was not observed

Compound: O=S(=O)([O-])[O-].[K+].[K+] [potassium sulfate, reference compound]
- amplification of target DNA (electrophoresis pattern) [5]: Amplification of the target DNA was not observed
- amplification of target DNA (electrophoresis pattern) [2]: amplification of the target DNA was not observed

Compound: O=C([O-])/C=C\C(=O)[O-].[Na+].[Na+] [sodium maleate]
- effect on extra bands ([5]; 4 mM salt): extra bands tended to decrease
- effect on extra bands ([5]; 10 mM salt): most of the extra bands disappeared

Compound: O=C([O-])CC(=O)[O-].[Na+].[Na+] [sodium malonate]
- effect on extra bands ([5]; 2 mM salt): the extra bands tended to decrease
- effect on extra bands ([5]; 6 mM salt): most of the extra bands disappeared

Compound: O=C([O-])C(=O)[O-].[Na+].[Na+] [sodium oxalate]
- amplification of target DNA (electrophoresis pattern) ([1]; carboxylate salts, FIG. 3): amplification of the target DNA was observed
- amplification of target DNA (electrophoresis pattern) ([1]; salt at 4 to 6 mM of ion equivalent, FIG. 2): Amplification was observed
- amplification of target DNA (electrophoresis pattern) [5]: Amplification was observed
